Measurements reported in ChEMBL document CHEMBL4811250, “Discovery and Optimization of 2H-1λ2-Pyridin-2-one Inhibitors of Mutant Isocitrate Dehydrogenase 1 for the Treatment of Cancer” (J Med Chem, 2021).

Legend:
[1] = target: Isocitrate dehydrogenase [NADP] cytoplasmic (Homo sapiens, UniProt O75874, R132H); test: Inhibition of IDH1 R132H mutant (unknown origin) assessed as reduction in NADPH consumption using alpha-KG as substrate incubated for 5 mins by diaphorase/resazurin-coupled system
[2] = tested on: Isocitrate dehydrogenase [NADP] cytoplasmic (Homo sapiens), O75874 [R132C]; test: Inhibition of IDH1 R132C mutant (unknown origin) assessed as reduction in NADPH consumption using alpha-KG as substrate at 38 uM incubated for 5 mins by diaphorase/resazurin-coupled system relative to control
[3] = tested on: Isocitrate dehydrogenase [NADP] cytoplasmic (Homo sapiens), O75874 [R132H]; test: Inhibition of IDH1 R132H mutant (unknown origin) assessed as reduction in NADPH consumption using alpha-KG as substrate at 38 uM incubated for 5 mins by diaphorase/resazurin-coupled system relative to control
[4] = target: Isocitrate dehydrogenase [NADP] cytoplasmic (Homo sapiens, UniProt O75874, R132C); test: Inhibition of IDH1 R132C mutant (unknown origin) assessed as reduction in NADPH consumption using alpha-KG as substrate incubated for 5 mins by diaphorase/resazurin-coupled system
Sequence of Isocitrate dehydrogenase [NADP] cytoplasmic (Homo sapiens, UniProt O75874, R132C) (O75874 2-414 R132C limits assumed): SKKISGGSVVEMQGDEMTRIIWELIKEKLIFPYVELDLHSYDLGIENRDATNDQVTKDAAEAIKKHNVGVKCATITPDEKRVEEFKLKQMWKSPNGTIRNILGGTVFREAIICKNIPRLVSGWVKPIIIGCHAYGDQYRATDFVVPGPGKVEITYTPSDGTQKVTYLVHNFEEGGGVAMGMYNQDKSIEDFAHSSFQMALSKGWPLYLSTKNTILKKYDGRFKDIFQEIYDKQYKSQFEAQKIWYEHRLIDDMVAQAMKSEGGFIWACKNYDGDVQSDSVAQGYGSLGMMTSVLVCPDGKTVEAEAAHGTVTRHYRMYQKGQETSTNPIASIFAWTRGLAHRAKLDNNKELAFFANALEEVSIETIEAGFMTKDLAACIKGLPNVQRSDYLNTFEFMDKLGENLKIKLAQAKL

Sequence of Isocitrate dehydrogenase [NADP] cytoplasmic (Homo sapiens), O75874 [R132C] (O75874 whole entry R132C): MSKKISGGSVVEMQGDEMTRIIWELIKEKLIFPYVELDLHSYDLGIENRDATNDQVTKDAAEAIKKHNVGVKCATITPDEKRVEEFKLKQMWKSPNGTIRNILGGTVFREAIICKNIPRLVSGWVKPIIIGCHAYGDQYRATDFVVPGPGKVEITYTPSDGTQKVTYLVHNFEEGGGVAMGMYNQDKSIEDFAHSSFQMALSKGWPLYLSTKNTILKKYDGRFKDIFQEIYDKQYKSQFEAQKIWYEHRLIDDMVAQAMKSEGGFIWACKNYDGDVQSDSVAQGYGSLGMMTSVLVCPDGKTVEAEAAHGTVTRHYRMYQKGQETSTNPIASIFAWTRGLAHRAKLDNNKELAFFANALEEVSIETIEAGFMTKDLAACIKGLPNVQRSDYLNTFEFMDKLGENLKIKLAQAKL
Sequence of Isocitrate dehydrogenase [NADP] cytoplasmic (Homo sapiens, UniProt O75874, R132H) (O75874 2-414 R132H limits assumed): as the sequence (O75874 2-414 R132C limits assumed) above, with C131H counted along it
Sequence of Isocitrate dehydrogenase [NADP] cytoplasmic (Homo sapiens), O75874 [R132H] (O75874 whole entry R132H): as the sequence (O75874 whole entry R132C) above, with C132H counted along it

| SMILES | IC50 [1] [µM] | inhibition [2] [%] | inhibition [3] [%] | IC50 [4] [µM] |
| --- | --- | --- | --- | --- |
| COc1ccc(OC)c(-n2c3c(cc(-c4nc(-c5ccc(Cl)cc5)cs4)c2=O)C(=O)CNC3)c1 | 8 | 32 | 75 | – |
| COc1ccc(OC)c(-n2c3c(cc(-n4cnc(-c5ccccc5)c4)c2=O)C(=O)CC(C)(C)C3)c1 | – | 44 | 59 | – |
| COc1cccc(-n2c3c(cc(-c4nc(-c5ccc(Cl)cc5)cs4)c2=O)C(=O)CC(C)(C)C3)c1OC | – | 35 | 64 | – |
| CCc1cccc(CC)c1-n1c(C=C(C)C)c(C(=O)N2CCNC(CO)C2)cc(-c2nc(-c3ccc(Cl)cc3)cs2)c1=O (stereo unspecified) | 0.049 | – | – | 0.06 |
| COc1ccc(OC)c(-n2c3c(cc(-c4ccc(-c5ccccc5)cc4)c2=O)C(=O)CC(C)(C)C3)c1 | > 38 | – | – | > 38 |
| CC1(C)CC(=O)c2cc(-c3nc(-c4ccc(Cl)cc4)cs3)c(=O)n(-c3ccccc3OCc3ccccc3)c2C1 | – | 61 | 38 | – |
| COc1ccc(OC)c(-n2c3c(cc(-c4nc(-c5ccccc5)cs4)c2=O)C(=O)CC(C)(C)C3)c1 | 1.2 | 59 | 77 | – |
| CC(C)=Cc1c(C(=O)N2CCNCC2)cc(-c2nc(-c3ccc(Cl)cc3)cs2)c(=O)n1-c1ccccc1 | 0.33 | – | – | 3.2 |
| CCc1cccc(CC)c1-n1c(C)c(C(=O)NC(C)(C)C)cc(-c2nc(-c3ccc(Cl)cc3)cs2)c1=O | – | 49 | 65 | – |
| CCc1cccc(CC)c1-n1c(C)c(C(=O)NC)cc(-c2nc(-c3ccc(Cl)cc3)cs2)c1=O | 1.5 | 64 | 87 | – |
| CC1(C)CC(=O)c2cc(-c3nc(-c4ccc(Cl)cc4)cs3)c(=O)n(-c3sccc3C#N)c2C1 | 0.26 | 90 | 100 | – |
| COc1ccc(OC)c(-n2c3c(cc(-c4cccc(-c5ccc(Cl)cc5)n4)c2=O)C(=O)CC(C)(C)C3)c1 | – | 46 | 67 | – |
| CCc1cccc(CC)c1-n1c(C)c(C(=O)NC2CCCCC2)cc(-c2nc(-c3ccc(Cl)cc3)cs2)c1=O | > 38 | 31 | – | – |
| CC1(C)CC(=O)c2cc(-c3nc(-c4ccc(Cl)cc4)cs3)c(=O)n(-c3ccccc3-c3ccccc3)c2C1 | – | 67 | 59 | – |
| CC1(C)CC(=O)c2cc(-c3nc(-c4ccc(Cl)cc4)cs3)c(=O)n(-c3ccccc3C(F)(F)F)c2C1 | 0.27 | 87 | 96 | – |
| COc1ccc(OC)c(-n2c3c(cc(-c4nc(-c5ccc(Cl)cc5)cs4)c2=O)CCC(C)(C)C3)c1 | 3.6 | 64 | 87 | – |
| COc1ccc(OC)c(-n2c3c(cc(-n4ccc(-c5ccccc5)n4)c2=O)C(=O)CC(C)(C)C3)c1 | – | 41 | 71 | – |
| CC1(C)CC(=O)c2cc(-c3nc(-c4ccc(Cl)cc4)cs3)c(=O)n(-c3ccccc3Oc3ccccc3)c2C1 | – | 60 | 30 | – |
| CNc1ccccc1-n1c2c(cc(-c3nc(-c4ccc(Cl)cc4)cs3)c1=O)C(=O)CC(C)(C)C2 | – | 43 | 59 | – |
| COc1ccc(OC)c(-n2c3c(cc(-c4nc(-c5ccc(Cl)cc5)cs4)c2=O)C(=O)CCC3)c1 | – | 43 | 62 | – |
| CCc1cccc(CC)c1-n1c(C)c(C(=O)NCc2ccccc2)cc(-c2nc(-c3ccc(Cl)cc3)cs2)c1=O | > 38 | 41 | – | – |
| CC(C)c1ccccc1-n1c2c(cc(-c3nc(-c4ccc(Cl)cc4)cs3)c1=O)C(=O)CC(C)(C)C2 | – | 61 | 62 | – |
| CC1(C)CC(=O)c2cc(-c3nc(-c4ccc(Cl)cc4)cs3)c(=O)n(-c3ccccc3Cl)c2C1 | 1.3 | 70 | 83 | – |

| SMILES | IC50 [1] [µM] | inhibition [2] [%] | inhibition [3] [%] | IC50 [4] [µM] |
| --- | --- | --- | --- | --- |
| CC(C)n1c2c(cc(-c3nc(-c4ccc(Cl)cc4)cs3)c1=O)C(=O)CC(C)(C)C2 | – | 33 | 31 | – |
| COc1cccc(C)c1-n1c2c(cc(-c3nc(-c4ccc(Cl)cc4)cs3)c1=O)C(=O)CC(C)(C)C2 | 2.1 | 72 | 81 | – |
| CCc1cccc(CC)c1-n1c(C)c(C(=O)Nc2ccccc2)cc(-c2nc(-c3ccc(Cl)cc3)cs2)c1=O | – | 69 | 40 | – |
| CCc1cccc(CC)c1-n1c(C)c(C(=O)N2CCCCC2)cc(-c2nc(-c3ccc(Cl)cc3)cs2)c1=O | – | 65 | 51 | – |
| COc1ccc(OC)c(-n2c3c(cc(-c4nc(-c5ccc(Cl)cc5)cs4)c2=O)C(=O)NCC3)c1 | 2.3 | 65 | 84 | – |
| COc1ccc(OC)c(-n2c3c(cc(-c4c[nH]c(-c5ccccc5)n4)c2=O)C(=O)CC(C)(C)C3)c1 | 2.1 | 39 | 75 | – |
| Cc1ccccc1-n1c2c(cc(-c3nc(-c4ccc(Cl)cc4)cs3)c1=O)C(=O)CC(C)(C)C2 | – | 64 | 74 | – |
| CC1(C)CC(=O)c2cc(-c3nc(-c4ccc(Cl)cc4)cs3)c(=O)n(-c3ccccc3N)c2C1 | – | 42 | 57 | – |
| COc1ccc(OC)c(-n2c3c(cc(-c4ccn(-c5ccccc5)n4)c2=O)C(=O)CC(C)(C)C3)c1 | 3.1 | 46 | 84 | – |
| CC1(C)CC(=O)c2cc(-c3nc(-c4ccc(Cl)cc4)cs3)c(=O)n(-c3ccccc3F)c2C1 | – | 49 | 65 | – |
| COc1ccc(OC)c(-n2c3c(cc(-c4cc(-c5ccccc5)[nH]n4)c2=O)C(=O)CC(C)(C)C3)c1 | – | 41 | 47 | – |
| COc1ccccc1Cn1c2c(cc(-c3nc(-c4ccc(Cl)cc4)cs3)c1=O)C(=O)CC(C)(C)C2 | – | 53 | 61 | – |
| COc1ccccc1-n1c2c(cc(-c3nc(-c4ccc(Cl)cc4)cs3)c1=O)C(=O)CC(C)(C)C2 | 2.4 | 65 | 76 | – |
| COc1c(C(=O)O)cccc1-n1c2c(cc(-c3nc(-c4ccc(Cl)cc4)cs3)c1=O)C(=O)CC(C)(C)C2 | 14 | 65 | 82 | – |
| CCc1cccc(CC)c1-n1c(C)c(C(=O)O)cc(-c2nc(-c3ccc(Cl)cc3)cs2)c1=O | 7.2 | 72 | 102 | – |
| CN(C)c1ccccc1-n1c2c(cc(-c3nc(-c4ccc(Cl)cc4)cs3)c1=O)C(=O)CC(C)(C)C2 | – | 57 | 56 | – |
| CC1(C)CC(=O)c2cc(-c3nc(-c4ccc(Cl)cc4)cs3)c(=O)n(-c3ccccc3)c2C1 | – | 38 | 47 | – |
| COc1cc(C(=O)O)ccc1-n1c2c(cc(-c3nc(-c4ccc(Cl)cc4)cs3)c1=O)C(=O)CC(C)(C)C2 | – | 43 | – | – |
| CC1(C)CC(=O)c2cc(-c3nc(-c4ccc(Cl)cc4)cs3)c(=O)n(-c3ccccn3)c2C1 | – | 39 | 47 | – |
| CCc1cccc(CC)c1-n1c(C)c(C(=O)NC(C)C)cc(-c2nc(-c3ccc(Cl)cc3)cs2)c1=O | 2.8 | 54 | 47 | – |
| CC1(C)CC(=O)c2cc(-c3nc(-c4ccc(Cl)cc4)cs3)c(=O)n(-c3ccccc3O)c2C1 | – | 61 | 71 | – |
| COc1ccc(OC)c(-n2c(=O)c(-c3nc(-c4ccc(Cl)cc4)cs3)cc3c(O)cccc32)c1 | – | 36 | 35 | – |
| COc1ccc(OC)c(-n2c3c(cc(-c4nc(-c5ccc(Cl)cc5)cs4)c2=O)C(=O)CC3)c1 | – | 29 | 38 | – |
